Data published in patent US20220142990A1, “EXTERNAL PREPARATION FOR TREATING A VASCULAR ANOMALY” (OSAKA UNIVERSITY, priority 2019, published 2022).

Assay: Test Example 4: sirolimus in blood of the patients
Assay type: in vivo, human
Conditions: Patients A, B, C; 0.2% sirolimus gel applied to lesion twice a day for 12 weeks; not detected, measurement limit value
Description: The gel containing 0.2 wt % of sirolimus produced in Production Example 3 (hereinafter referred to as 0.2% sirolimus gel) was applied to a lesion portion twice a day for 12 weeks. An approximate size of an application target lesion was measured to determine a single application amount. The application amount was set to about 125 mg of gel per 50 cm^2. In the sirolimus gel treatment period (12 weeks), no combined medicine was used, and no combination therapy was performed.
Sirolimus was not detected from the blood of any of the patients (measurement limit value: 1.0 ng/mL).

- sirolimus in blood: < 1.0 ng/mL
Structure (SMILES): CO[C@H]1C[C@@H]2CC[C@@H](C)[C@@](O)(O2)C(=O)C(=O)N2CCCC[C@H]2C(=O)O[C@H]([C@H](C)C[C@@H]2CC[C@@H](O)[C@H](OC)C2)CC(=O)[C@H](C)/C=C(\C)[C@@H](O)[C@@H](OC)C(=O)[C@H](C)C[C@H](C)/C=C/C=C/C=C/1C [Sirolimus, sirolimus]
